According to US12637457B2, “Salt form and crystal form of JAK inhibitor, preparation method therefor, and use thereof” (SHANGHAI FUDAN-ZHANGJIANG BIO-PHARMACEUTICAL CO., LTD., priority 2020, dated 2026):
Where two headings read alike, the source gives them in different places.

How the values were obtained:
[1] = Stability test in stable chamber (temperature and humidity); assay type: physicochemical; details: for Content of compound shown in formula I: HPLC
Description: Whether the temperature and humidity have an impact on the stability of the crystal form A of the hydrochloride hydrate of the compound shown in formula I was tested: […]

Hygroscopicity study = assay type: physicochemical; details: 25° C./75%-RH for 5 days
[2] = Comparison of thermodynamic stability of crystal forms in saturated ethanol/water solution; assay type: physicochemical; details: ethanol/water 9:1 saturated solution, 50° C., stirred 24 hours
Description: Crystal form A, crystal form E and crystal form F were respectively dissolved in a mixed solvent of ethanol/water (volume ratio=9:1) to prepare a saturated solution. The saturated solution was heated to 50° C., and 10 mg of crystal form A, crystal form E and crystal form F were respectively added with stirring. The mixture was kept at 50° C., stirred for 24 hours, then filtered, and the XRPD of the resulting crystals was respectively determined (XRPD patterns of crystals precipitated by adding crystal forms A, E and F are shown in FIGS. 10, 11 and 12, respectively).

TYK2 = biological target: T1, TYK2 (Homo sapiens, UniProt P29597); experiment: HTRF in vitro enzyme activity biochemical assay, TYK2; details: 1 mM ATP, 100 ng/mL TYK2
T1 construct: purchased Carna Biosciences, Inc. 08-147
T1 sequence (P29597 871-1187 limits assumed): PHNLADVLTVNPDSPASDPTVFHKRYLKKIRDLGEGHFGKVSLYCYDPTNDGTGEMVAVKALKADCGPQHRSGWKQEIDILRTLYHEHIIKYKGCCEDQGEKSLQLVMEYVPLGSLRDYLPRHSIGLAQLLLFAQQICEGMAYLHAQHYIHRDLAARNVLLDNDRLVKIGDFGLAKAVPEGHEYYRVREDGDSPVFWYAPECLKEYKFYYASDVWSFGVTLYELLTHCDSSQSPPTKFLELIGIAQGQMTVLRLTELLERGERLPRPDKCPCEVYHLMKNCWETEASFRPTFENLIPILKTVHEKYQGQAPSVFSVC
Description: (§1) Then, the concentration of the compound diluent was further diluted to 2.5-fold of the final test concentration with the kinase reaction buffer to obtain a compound solution to be tested.
(§2) The enzymatic reaction was initiated by adding a mixture of 2 μL of substrate and 2 μL of ATP prepared in kinase reaction buffer. […] The percentage of inhibition was calculated according to the formula: percentage of inhibition=100%−ratio value of a treated compound/ratio value of a treated DMSO carrier (DMSO carrier was a blank control group without drugs).
(§3) A dose-response curve was generated, and IC50 was calculated by non-linear S-shaped curve fitting using GraphPad Prism software.

[3] = Solubility test in common solvents (visual dissolution); assay type: physicochemical; details: 25° C.±5° C., observed within 30 minutes
Description: The sample that has been ground into fine powder was weighed and added to a certain volume of solvent (ambient temperature: 25° C.±5° C.), shaken strongly for 30 seconds every 5 minutes, and the dissolution was observed within 30 minutes. If there were no visually visible solute particles or droplets, the sample was regarded as completely dissolved. According to this method, the dissolution of crystal form A of the hydrochloride hydrate of the compound shown in formula I and the free base form of the compound shown in formula I in common solvents was observed, and the results are shown in Table 3.

JAK1 = biological target: T2, JAK1 (Homo sapiens, UniProt P23458); experiment: HTRF in vitro enzyme activity biochemical assay, JAK1; details: 1 mM ATP, 500 ng/mL JAK1
T2 construct: purchased Invitrogen PV4774
T2 sequence (P23458 866-1154 limits assumed): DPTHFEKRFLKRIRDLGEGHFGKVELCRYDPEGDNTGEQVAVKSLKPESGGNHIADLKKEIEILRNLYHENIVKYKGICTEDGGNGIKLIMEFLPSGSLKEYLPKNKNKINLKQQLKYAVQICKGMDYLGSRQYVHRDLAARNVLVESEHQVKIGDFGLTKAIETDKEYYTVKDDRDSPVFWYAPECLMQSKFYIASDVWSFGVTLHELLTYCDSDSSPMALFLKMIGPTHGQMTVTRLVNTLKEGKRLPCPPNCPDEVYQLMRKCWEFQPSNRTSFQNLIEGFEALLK
Description: as §1, §2, §3

JAK2 = biological target: T3, JAK2 (Homo sapiens, UniProt O60674); experiment: HTRF in vitro enzyme activity biochemical assay, JAK2; details: 1 mM ATP, 6 ng/mL JAK2
T3 construct: purchased Carna Biosciences, Inc. 08-045
T3 sequence (O60674 826-1132 limits assumed): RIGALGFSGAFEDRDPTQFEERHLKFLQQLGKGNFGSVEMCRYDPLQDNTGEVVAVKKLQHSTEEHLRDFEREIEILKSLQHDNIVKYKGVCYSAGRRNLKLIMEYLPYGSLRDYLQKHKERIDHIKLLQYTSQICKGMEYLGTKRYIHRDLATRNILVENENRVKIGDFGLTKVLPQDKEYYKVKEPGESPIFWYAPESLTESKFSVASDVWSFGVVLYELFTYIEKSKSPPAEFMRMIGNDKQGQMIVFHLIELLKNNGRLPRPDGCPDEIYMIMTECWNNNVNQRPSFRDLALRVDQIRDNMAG
Description: as §1, §2, §3

JAK3 = biological target: T4, JAK3 (Homo sapiens, UniProt P52333); experiment: HTRF in vitro enzyme activity biochemical assay, JAK3; details: 1 mM ATP, 37 ng/mL JAK3
T4 construct: purchased Carna Biosciences, Inc. 08-046
T4 sequence (P52333 795-1124 limits assumed): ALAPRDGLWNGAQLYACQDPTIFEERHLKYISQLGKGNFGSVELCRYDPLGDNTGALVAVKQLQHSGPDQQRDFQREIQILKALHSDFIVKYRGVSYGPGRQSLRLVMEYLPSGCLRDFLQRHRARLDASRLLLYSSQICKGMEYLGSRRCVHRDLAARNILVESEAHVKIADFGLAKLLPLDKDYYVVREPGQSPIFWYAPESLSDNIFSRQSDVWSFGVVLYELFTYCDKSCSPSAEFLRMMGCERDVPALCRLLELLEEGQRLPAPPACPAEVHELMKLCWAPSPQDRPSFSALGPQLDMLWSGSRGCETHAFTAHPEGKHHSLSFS
Description: as §1, §2, §3

Single dose PK study = assay type: in vivo; details: female SD rats, single oral dose 3 mg/kg, 0.5% CMC-Na suspension, plasma
Description: Two groups of SD rats (3 females in each group) were given a single oral dose of 3 mg/kg free base of the compound shown in formula I and a single oral dose of 3 mg/kg crystal form A of hydrochloride hydrate of the compound shown in formula I, respectively. The drug was administered as a 0.5% CMC-Na suspension. Samples were taken at different times until 24 hours, and the drug concentration of the compound shown in formula I in plasma was analyzed by LC-MS/MS method, and the final calculation results are shown in Table 8.
Chromatographic Conditions of LC-MS/MS Method for Compound Shown in Formula I:
• instrument model, SHIMADZU LC-30AD liquid phase system; chromatographic column, ACQUITY UPLC® BEH C18 (2.1×50 mm, 1.7 μm); column temperature, 40° C.; injection volume, 1 μL; flow rate of 0.6 mL/min; run time of 6 min; • the mobile phase gradient settings are shown in Table 5.
Instrument model, AB SCIEX TRIPLE QUAD 6500 mass spectrometer; ion source, electrospray (ESI); ionization mode, positive ion scanning; multi-ion (MRM) ion pairs are shown in Table 6; instrument parameters are shown in Table 7.

[4] = 40° C./60%-RH and 25° C./75%-RH, after 30 days
[5] = listed as Free base of compound shown in formula I

Structure (SMILES): O=C(Nc1cn2c(-c3ccc(CN4CCS(=O)(=O)CC4)cc3F)cccc2n1)C1CC1 [Crystal form A]
- Change in XRPD compared with initial crystal form [1, 4]: no significant change
- Change in appearance compared with initial crystal form [1, 4]: no significant change
- Content of compound shown in formula I ([1]; initial): 99.901%
- Content of compound shown in formula I ([1]; placed at 25° C./75%-RH for 30 days): 99.899%
- Content of compound shown in formula I ([1]; placed at 40° C./75%-RH for 30 days): 99.905%
- Hygroscopic weight gain (Hygroscopicity study): 2.4%
- Crystal form of the solid after stirring in saturated solution (XRPD) [2]: still crystal form A
- IC50 (TYK2): 653 nM
- Solubility in ethanol [3]: Soluble
- Solubility in methanol [3]: Very soluble
- Solubility in simulated gastric juice [3]: Sparingly soluble
- Solubility in water [3]: Soluble
- IC50 (JAK1): 145 nM
- IC50 (JAK2): 462 nM
- IC50 (JAK3): 5520 nM
- Cmax (Single dose PK study): 456 ng/mL
- AUClast (Single dose PK study; up to 24 hours): 1390 ng·h/mL

Structure (SMILES): O=C(Nc1cn2c(-c3ccc(CN4CCS(=O)(=O)CC4)cc3F)cccc2n1)C1CC1 [Crystal form C]
- Hygroscopic weight gain (Hygroscopicity study): 6.1%

Structure (SMILES): O=C(Nc1cn2c(-c3ccc(CN4CCS(=O)(=O)CC4)cc3F)cccc2n1)C1CC1 [Crystal form D]
- Hygroscopic weight gain (Hygroscopicity study): 8.1%

Structure (SMILES): O=C(Nc1cn2c(-c3ccc(CN4CCS(=O)(=O)CC4)cc3F)cccc2n1)C1CC1 [Crystal form E]
- Hygroscopic weight gain (Hygroscopicity study): 5.3%
- Crystal form of the solid after stirring in saturated solution (XRPD) [2]: transformed into crystal form A

Structure (SMILES): O=C(Nc1cn2c(-c3ccc(CN4CCS(=O)(=O)CC4)cc3F)cccc2n1)C1CC1 [Crystal form F]
- Hygroscopic weight gain (Hygroscopicity study): 4.9%
- Crystal form of the solid after stirring in saturated solution (XRPD) [2]: transformed into crystal form A

Structure (SMILES): O=C(Nc1cn2c(-c3ccc(CN4CCS(=O)(=O)CC4)cc3F)cccc2n1)C1CC1 [Free base]
- Solubility in ethanol [3, 5]: Slightly soluble
- Solubility in methanol [3, 5]: Slightly soluble
- Solubility in simulated gastric juice [3, 5]: Insoluble
- Solubility in water [3, 5]: Very slightly soluble
- Cmax (Single dose PK study; female, SD, rat, po, 3 mg/kg, read-out: Cmax): 352 ng/mL
- AUC(0-t) (Single dose PK study; female, SD, rat, po, 3 mg/kg, up to 24 hours): 987 ng·h/mL
